What was measured:
[1] = DPPH radical scavenging activity; details: 0.1 mM DPPH in methanol, 37°C, 30 min
Method: This assay was conducted as previously described by Wen et al. with some modifications. DPPH was freshly prepared in methanol at a concentration of 0.1 mM. The solution (20 μL) containing the tested compounds with different concentrations was added into the DPPH solution (180 μL) in the 96-well plates. […] The IC50 value was calculated on the scavenging activity against DPPH radical.

[2] = Oxygen radical antioxidant capacity (ORAC) assay; details: Trolox equivalents; AAPH, fluorescein
Method: The ORAC assay was evaluated as previously described by Cao et al. with some modifications. 50 μL of samples or Trolox with different concentrations and the fluorescein solution was added to a 96-well microplate, which was incubated at 37°C for 10 min. […] The ORAC values were calculated by the regression equation between the Trolox concentration and the net area under the curve (expressed as μmol Trolox eq/μmol sample).

HepG2 cells = experiment: Cellular antioxidant activity (CAA) assay; assay type: cell-based; details: DCFH-DA 25 μM, ABAP 600 μM
Method: The CAA assay was tested as described previously. 6 × 10^4 cells/well of HepG2 cells were seeded at a 96-well microplate with 100 μL of growth medium/well. […] Then, the cells were washed with PBS and treated with 100 μL of 600 μM ABAP (dissolved in HBSS), and the 96-well microplate was immediately placed into an Infinite SpectraMax i3x Multi-Mode Detection plate-reader at 37°C. […]

| Compound | IC50 [1] [µM] | EC50 (HepG2 cells; Homo sapiens) [µM] | ORAC values [2] [μmol TE/μmol] | EC50 (HepG2 cells) [µM] |
| --- | --- | --- | --- | --- |
| OC[C@H]1O[C@@H](Oc2cc3c(O)cc(O)cc3[o+]c2-c2ccc(O)c(O)c2)[C@H](O)[C@@H](O)[C@@H]1O.[Cl-] [compound 54, Cyanidin-3-O-glucoside chloride] | > 200 |  | 4.63 ± 0.14 | 43.8 |
| COc1ccc([C@@H]2CC(=O)c3c(O)cc(O[C@@H]4O[C@H](CO)[C@@H](O)[C@H](O)[C@H]4O[C@@H]4O[C@@H](C)[C@H](O)[C@@H](O)[C@H]4O)cc3O2)cc1O [compound 41, Neohesperidin] | > 200 |  |  | > 200 |
| O=c1cc(-c2ccc(O)cc2)oc2c([C@@H]3O[C@H](CO)[C@@H](O)[C@H](O)[C@H]3O)c(O)cc(O)c12 [compound 30, Vitexin] | > 200 | > 200 | 6.80 ± 0.42 |  |
| O=c1c(OC2OC(CO)C(O)C(O)C2O)c(-c2cc(O)c(O)c(O)c2)oc2cc(O)cc(O)c12 (stereo not shown) [compound 25, Myricetin-3-O-galactoside] | 82.4 ± 2.88 | > 200 |  |  |
| O=c1cc(-c2ccc(O)c(O)c2)oc2c([C@@H]3O[C@H](CO)[C@@H](O)[C@H](O)[C@H]3O)c(O)cc(O)c12 [compound 31, Orientin] | > 200 | > 200 |  |  |
| OCC1OC(Oc2cc3c(OC4OC(CO)C(O)C(O)C4O)cc(O)cc3[o+]c2-c2ccc(O)cc2)C(O)C(O)C1O (stereo not shown) [compound 55, Pelargonin chloride] | > 200 | > 200 |  |  |
| COc1ccc(CCC(=O)c2c(O)cc(O[C@@H]3O[C@H](CO)[C@@H](O)[C@H](O)[C@H]3O[C@@H]3O[C@@H](C)[C@H](O)[C@@H](O)[C@H]3O)cc2O)cc1O [compound 47, Neohesperidin dihydrochalcone] | > 200 | > 200 | 4.31 ± 0.01 |  |
| OCC1OC(Oc2cc3c(OC4OC(CO)C(O)C(O)C4O)cc(O)cc3[o+]c2-c2ccc(O)c(O)c2)C(O)C(O)C1O (stereo not shown) [compound 53, Cyanin chloride] | > 200 | > 200 |  |  |
| O=C(O[C@@H]1Cc2c(O)cc(O)cc2O[C@@H]1c1cc(O)c(O)c(O)c1)c1cc(O)c(O)c(O)c1 [compound 60, Epigallocatechin gallate] | 19.1 ± 0.62 | 25.91 ± 0.25 | 6.02 ± 0.14 |  |
| C[C@@H]1O[C@@H](Oc2c(-c3ccc(O)c(O)c3)oc3cc(O)cc(O)c3c2=O)[C@H](O)[C@H](O)[C@H]1O [compound 28, Quercitrin] | 68.3 ± 1.37 | > 200 |  |  |
| O=C1C[C@@H](c2ccc(O)cc2)Oc2cc(O)ccc21 [compound 46, Liquiritigenin] | > 200 | > 200 |  |  |
| COc1ccc(-c2cc(=O)c3c(OC)c(OC)c(OC)c(OC)c3o2)cc1 [compound 19, Tangeretin] | > 200 | > 200 |  |  |
| Myricitrin [compound 9] | 50.9 ± 2.14 |  |  | > 200 |
| COc1cc(-c2oc3cc(O)cc(O)c3c(=O)c2O)ccc1O [compound 1, Isorhamnetin] | 126 ± 4.26 | 23.3 ± 1.38 |  |  |
| C[C@@H]1O[C@@H](OC[C@H]2O[C@@H](Oc3cc(O)c4c(c3)O[C@H](c3ccc(O)cc3)CC4=O)[C@H](O)[C@@H](O)[C@@H]2O)[C@H](O)[C@H](O)[C@H]1O [compound 42, Narirutin] | > 200 | > 200 |  |  |
| Quercetin-3-O-rhamnoside [compound 27] | 47.7 |  |  | 22.8 |
| O=C(/C=C/c1ccc(O)cc1)c1ccc(O)cc1O [compound 50, Isoliquiritigenin] |  | > 200 |  |  |
| C[C@@H]1O[C@@H](OC[C@H]2O[C@@H](Oc3c(-c4ccc(O)c(O)c4)oc4cc(O)cc(O)c4c3=O)[C@H](O)[C@@H](O)[C@@H]2O)[C@H](O)[C@H](O)[C@H]1O [compound 16, Rutin] | 70 ± 1.44 | > 200 |  |  |
| COc1ccc([C@@H]2CC(=O)c3c(O)cc(O)cc3O2)cc1O [compound 43, Hesperetin] | > 200 | > 200 |  |  |

Now from value to compound, other results behind:

| IC50 [1] [µM] | EC50 (HepG2 cells; Homo sapiens) [µM] | Compound | ORAC values [2] [μmol TE/μmol] | EC50 (HepG2 cells) [µM] |
| --- | --- | --- | --- | --- |
| 21.3 ± 1.33 | 26.7 ± 1.04 | O=c1c(O)c(-c2cc(O)c(O)c(O)c2)oc2cc(O)cc(O)c12 [compound 18, Myricetin] | 6.64 ± 0.03 |  |
| 70.8 ± 2.31 | 19.16 ± 0.16 | Oc1cc(O)c2cc(O)c(-c3ccc(O)c(O)c3)[o+]c2c1 [compound 51, Cyanidin chloride] | 5.71 ± 0.03 |  |
| > 200 | 11 ± 0.25 | O=c1c(O)c(-c2ccc(O)cc2)oc2cc(O)cc(O)c12 [compound 6, Kaempferol] | 4.17 ± 0.06 |  |
| > 200 | > 200 | O=c1c(O)c(-c2ccc(OC3O[C@H](CO)[C@@H](O)[C@H](O)[C@H]3O)cc2)oc2cc(O)cc(O)c12 (stereo partly shown) [compound 12, Kaempferol-4′-O-glucopyranoside] |  |  |
| > 200 | > 200 | O=c1cc(-c2ccc(O)cc2)oc2cc(O)cc(O)c12 [compound 22, Apigenin] | 4.27 ± 0.02 |  |
| > 200 | 30.96 ± 0.2 | O=C(CCc1ccc(O)cc1)c1c(O)cc(O)cc1O [compound 48, Phloretin] |  |  |
| > 200 | 15.2 ± 0.32 | O=c1c(O)c(-c2ccc(O)cc2O)oc2cc(O)cc(O)c12 [compound 4, Morin] | 5.98 ± 0.01 |  |
| > 200 | > 200 | O=c1cc(-c2ccccc2)oc2cc(O)cc(O)c12 [compound 20, Chrysin] |  |  |
| > 200 | 42.5 ± 0.24 | O=c1cc(-c2ccccc2)oc2cc(O)c(O)c(O)c12 [compound 21, Baicalein] |  |  |
| 53.3 | 45.9 | O=c1c(OC2OC(CO)C(O)C(O)C2O)c(-c2ccc(O)c(O)c2)oc2cc(O)cc(O)c12 (stereo not shown) [compound 26, Quercetin-3-O-galactoside] | 4.05 ± 0.15 |  |
| > 200 | > 200 | O=C1C[C@@H](c2ccc(O)cc2)Oc2cc(O)cc(O)c21 [compound 45, Naringenin] | 4.62 ± 0.13 |  |
| > 200 | > 200 | O=C1c2c(O)cc(O)cc2O[C@H](c2ccc(O)cc2O)[C@H]1O [compound 40, Dihydromorin] | 5.29 ± 0.05 |  |
| > 200 | > 200 | O=c1c(O[C@@H]2O[C@H](CO)[C@@H](O)[C@H](O)[C@H]2O)c(-c2ccc(O)c(O)c2)oc2cc(O)cc(O)c12 [compound 29, Isoquercitrin] |  |  |
| > 200 | > 200 | O=c1cc(-c2ccc(O)cc2)oc2cc(O)c([C@@H]3O[C@H](CO)[C@@H](O)[C@H](O)[C@H]3O)c(O)c12 [compound 33, Isovitexin] |  |  |
| > 200 | 31.2 ± 0.86 | O=c1c(O)c(-c2ccccc2)oc2cc(O)cc(O)c12 [compound 34, Galangin] |  |  |
| > 200 | > 200 | COc1cc(O)c2c(=O)cc(-c3ccc(O)cc3)oc2c1 [compound 37, Genkwanin] |  |  |
| > 200 | > 30 | COc1ccc(-c2oc3cc(O)cc(O)c3c(=O)c2O)cc1 [compound 3, Kaempferide] |  |  |
| > 200 | > 200 | O=c1c(O)c(-c2ccc(O[C@@H]3O[C@H](CO)[C@@H](O)[C@H](O)[C@H]3O)c(O)c2)oc2cc(O)cc(O)c12 [compound 17, Spiraeoside] |  |  |
